Source: publication PMC4790851, “Iminosugars Inhibit Dengue Virus Production via Inhibition of ER Alpha-Glucosidases—Not Glycolipid Processing Enzymes” (PLoS Neglected Tropical Diseases, 2016)
Like-named read-outs stand apart in the source and are kept apart here.

What was measured:
[1] = target: T1, Mouse ER α-glucosidase II (Mus musculus, UniProt Q8BHN3); assay: In vitro enzyme inhibition, 4MUG hydrolysis; format: biochemical; conditions: concentration required to inhibit the enzyme to 50% activity
T1 sequence (Q8BHN3 33-944): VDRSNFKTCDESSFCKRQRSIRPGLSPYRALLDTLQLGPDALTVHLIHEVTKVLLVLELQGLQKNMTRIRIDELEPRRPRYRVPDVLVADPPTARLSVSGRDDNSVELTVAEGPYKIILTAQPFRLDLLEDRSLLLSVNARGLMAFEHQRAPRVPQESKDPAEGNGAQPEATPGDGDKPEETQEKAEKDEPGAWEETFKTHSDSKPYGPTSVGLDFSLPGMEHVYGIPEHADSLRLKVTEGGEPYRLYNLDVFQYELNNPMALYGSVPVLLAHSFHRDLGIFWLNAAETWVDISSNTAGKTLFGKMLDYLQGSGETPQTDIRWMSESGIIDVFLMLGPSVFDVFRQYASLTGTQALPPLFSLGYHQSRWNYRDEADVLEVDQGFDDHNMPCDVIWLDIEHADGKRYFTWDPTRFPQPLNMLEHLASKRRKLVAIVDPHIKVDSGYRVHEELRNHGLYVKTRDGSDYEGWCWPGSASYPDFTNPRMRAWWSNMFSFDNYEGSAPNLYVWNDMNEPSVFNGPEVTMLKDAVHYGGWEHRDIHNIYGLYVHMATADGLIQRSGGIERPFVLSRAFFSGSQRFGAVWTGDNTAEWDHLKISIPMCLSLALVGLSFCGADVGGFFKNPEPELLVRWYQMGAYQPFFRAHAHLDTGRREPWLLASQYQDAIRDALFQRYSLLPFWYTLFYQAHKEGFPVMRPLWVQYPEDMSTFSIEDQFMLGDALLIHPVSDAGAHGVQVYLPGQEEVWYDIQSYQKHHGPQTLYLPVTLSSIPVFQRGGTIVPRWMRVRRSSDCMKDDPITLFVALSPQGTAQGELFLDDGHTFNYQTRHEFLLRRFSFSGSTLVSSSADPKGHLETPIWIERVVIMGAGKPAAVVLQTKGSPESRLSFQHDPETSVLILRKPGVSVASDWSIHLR
T1 sequence (O08795 15-521 partner): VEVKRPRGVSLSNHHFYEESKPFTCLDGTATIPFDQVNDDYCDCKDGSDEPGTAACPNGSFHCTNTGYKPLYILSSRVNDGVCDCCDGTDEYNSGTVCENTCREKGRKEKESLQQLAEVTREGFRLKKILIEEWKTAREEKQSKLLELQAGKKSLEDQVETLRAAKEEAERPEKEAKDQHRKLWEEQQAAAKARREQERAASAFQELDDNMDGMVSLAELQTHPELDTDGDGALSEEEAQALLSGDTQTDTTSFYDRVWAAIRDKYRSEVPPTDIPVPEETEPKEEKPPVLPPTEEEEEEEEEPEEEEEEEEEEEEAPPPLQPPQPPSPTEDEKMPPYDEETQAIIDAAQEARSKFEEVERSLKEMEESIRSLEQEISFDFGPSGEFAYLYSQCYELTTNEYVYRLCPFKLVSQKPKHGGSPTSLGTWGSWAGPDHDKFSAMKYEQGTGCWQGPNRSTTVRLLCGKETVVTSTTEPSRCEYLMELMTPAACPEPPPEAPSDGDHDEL
Description: Recombinant Mus musculus ER alpha-glucosidase II inhibition was measured by incubating 20 nM enzyme with various concentrations of inhibitors in 100 mM potassium phosphate pH 7.2 at 37 °C for 5 minutes. Activity was measured by addition of 0.25 mM 4-methylumbelliferyl α-D-glucopyranoside (4MUG) (Sigma Aldrich) in black, non-binding surface-treated microplates (Corning). Fluorescence upon hydrolysis of the 4MUG was measured at λex of 355 nm and λem of 460 nm in a M5 multi-mode plate reader (Molecular Devices) at 37 °C, measuring fluorescence every minute for a total of 30 minutes. The initial velocity was fit in the linear range of measurements, and activity was normalized to the uninhibited control in order to plot activity against the inhibitor concentration. A sigmoidal, four-parameter function with a variable slope was used to determine the EC50 values in Prism (GraphPad).

[2] = target: T2, Rat intestinal isomaltase (Rattus norvegicus, UniProt P23739); assay: In vitro enzyme inhibition, glucose release from disaccharide; format: biochemical
T2 construct: from tissue; host or cells: rat intestine
T2 sequence (P23739 whole entry): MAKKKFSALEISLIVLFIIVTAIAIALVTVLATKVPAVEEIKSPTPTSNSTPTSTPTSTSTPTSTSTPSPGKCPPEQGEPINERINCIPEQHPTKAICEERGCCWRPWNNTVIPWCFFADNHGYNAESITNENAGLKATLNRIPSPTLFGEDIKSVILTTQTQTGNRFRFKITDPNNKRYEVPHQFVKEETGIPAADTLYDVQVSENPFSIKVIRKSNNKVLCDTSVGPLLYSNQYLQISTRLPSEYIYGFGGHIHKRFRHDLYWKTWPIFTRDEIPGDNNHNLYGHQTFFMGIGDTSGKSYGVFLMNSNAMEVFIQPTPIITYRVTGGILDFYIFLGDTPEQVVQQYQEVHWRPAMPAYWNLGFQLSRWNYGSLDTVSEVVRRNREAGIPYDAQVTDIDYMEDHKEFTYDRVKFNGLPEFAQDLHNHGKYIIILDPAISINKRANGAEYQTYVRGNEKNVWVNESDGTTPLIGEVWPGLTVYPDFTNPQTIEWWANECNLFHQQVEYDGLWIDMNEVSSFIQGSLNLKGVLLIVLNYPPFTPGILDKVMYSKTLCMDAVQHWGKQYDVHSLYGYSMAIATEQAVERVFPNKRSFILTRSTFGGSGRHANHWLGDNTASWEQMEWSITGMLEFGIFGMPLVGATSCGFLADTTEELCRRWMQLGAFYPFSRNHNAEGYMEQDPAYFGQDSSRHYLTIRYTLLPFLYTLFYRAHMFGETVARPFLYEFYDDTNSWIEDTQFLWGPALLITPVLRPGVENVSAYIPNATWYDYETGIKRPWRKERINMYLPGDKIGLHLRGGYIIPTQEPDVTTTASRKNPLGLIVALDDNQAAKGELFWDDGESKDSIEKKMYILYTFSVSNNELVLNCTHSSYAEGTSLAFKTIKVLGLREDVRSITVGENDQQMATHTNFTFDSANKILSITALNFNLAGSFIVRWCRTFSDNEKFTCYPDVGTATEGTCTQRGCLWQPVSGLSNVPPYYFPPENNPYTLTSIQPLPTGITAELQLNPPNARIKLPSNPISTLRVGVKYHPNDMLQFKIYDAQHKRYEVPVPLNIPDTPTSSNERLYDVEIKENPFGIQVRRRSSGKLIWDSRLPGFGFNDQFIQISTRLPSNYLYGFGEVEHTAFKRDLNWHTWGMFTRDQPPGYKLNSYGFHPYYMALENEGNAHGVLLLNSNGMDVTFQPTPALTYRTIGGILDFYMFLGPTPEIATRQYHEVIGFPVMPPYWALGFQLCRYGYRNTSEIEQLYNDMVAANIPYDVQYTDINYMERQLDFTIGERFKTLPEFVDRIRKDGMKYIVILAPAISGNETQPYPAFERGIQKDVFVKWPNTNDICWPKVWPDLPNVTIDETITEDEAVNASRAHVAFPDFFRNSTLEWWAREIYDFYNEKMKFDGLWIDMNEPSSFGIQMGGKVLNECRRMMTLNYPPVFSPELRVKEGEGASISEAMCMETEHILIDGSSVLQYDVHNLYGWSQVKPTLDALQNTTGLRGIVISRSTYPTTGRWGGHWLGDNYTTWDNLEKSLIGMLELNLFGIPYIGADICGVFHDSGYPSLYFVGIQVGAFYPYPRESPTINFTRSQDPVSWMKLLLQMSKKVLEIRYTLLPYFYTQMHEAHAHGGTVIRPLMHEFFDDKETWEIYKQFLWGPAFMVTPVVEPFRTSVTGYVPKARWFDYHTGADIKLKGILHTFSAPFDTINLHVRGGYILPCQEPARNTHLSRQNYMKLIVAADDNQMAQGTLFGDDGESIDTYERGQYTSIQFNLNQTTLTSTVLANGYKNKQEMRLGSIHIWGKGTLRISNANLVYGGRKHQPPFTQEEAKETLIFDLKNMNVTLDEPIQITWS

[3] = target: T3, Rat intestinal sucrase (Rattus norvegicus, UniProt P23739); assay: as above; format: biochemical
T3 construct: from tissue; host or cells: rat intestine
T3 sequence (P23739 whole entry): as above

[4] = target: Rat intestinal maltase; assay: as above; format: biochemical; conditions: concentration required to inhibit the enzyme to 50% activity
Description: Inhibition of glucosidases and glycosidases was detected as previously described. Briefly, assays were performed at the optimum pH of each enzyme, and appropriate disaccharide was provided as substrate for glucosidase release assays. Release of D-glucose was measured using a Glucose B-test (Wako Diagnostics). Appropriate p-nitrophenyl glycoside was added as substrate for additional glycosidase assays, and assays were stopped by adding 400 mM Na2CO3. Release of p-nitrophenol was measured spectrophotometrically at 400 nm.

[5] = test system: MDMΦs; assay: Cytotoxicity, MTS cell proliferation assay; format: cell-based, human
Description: Cytotoxicity of compounds was assessed by a cell proliferation assay for metabolic activity using a CellTiter 96 AQueous One Solution Cell Proliferation Assay (Promega) as per the manufacturer’s instructions. Briefly, 20 μl of a solution containing tetrazolium compound [3-(4,5-[…])-5-(3-carboxymethoxyphenyl)-2-(4-sulfophenyl)-2H-tetrazolium; MTS] and electron coupling reagent (phenazine ethosulfate) was added to cells covered or suspended in 100 μl of culture medium in a 96-well plate. Samples were incubated for approximately 4 hours (37°C, 5% CO2), and the absorbance at 490 nm (A490) was measured on a SpectraMax M5 microplate reader (Molecular Devices).

[6] = test system: DENV2 strain 16681; assay: In vitro antiviral assay: infectious DENV titer from infected MDMΦs by LLC-MK2 plaque assay; format: cell-based, dengue virus serotype 2; conditions: Dengue virus, DENV2, LLC-MK2, 48 h, MDMΦs infected with DENV2 MOI 1, drug 48 h, infectious titer by plaque assay; table values with 95% confidence interval in parentheses; read-out: EC50
[7] = target: Human lysosome α-glucosidase (Homo sapiens, UniProt P10253); assay: In vitro enzyme inhibition; format: biochemical
[8] = target: T4, Human lysosome α-galactosidase (Homo sapiens, UniProt P06280); assay: In vitro enzyme inhibition; format: biochemical
T4 sequence (P06280 32-429): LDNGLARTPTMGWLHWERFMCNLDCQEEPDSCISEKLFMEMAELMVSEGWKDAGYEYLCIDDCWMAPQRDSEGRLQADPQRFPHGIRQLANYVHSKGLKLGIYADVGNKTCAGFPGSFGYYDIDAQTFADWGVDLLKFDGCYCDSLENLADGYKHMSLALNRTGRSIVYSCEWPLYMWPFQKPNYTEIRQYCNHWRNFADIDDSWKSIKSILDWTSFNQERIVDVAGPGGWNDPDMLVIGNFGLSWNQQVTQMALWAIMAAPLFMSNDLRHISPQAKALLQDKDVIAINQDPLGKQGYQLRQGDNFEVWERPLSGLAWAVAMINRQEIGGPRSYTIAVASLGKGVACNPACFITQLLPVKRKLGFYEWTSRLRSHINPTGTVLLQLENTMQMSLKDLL

[9] = test system: monosialodihexosylganglioside (GM3) production; assay: Glycosphingolipid analysis: GM3 levels in MDMΦs by NP-HPLC; format: cell-based, human; conditions: 48 h, uninfected MDMΦ, normalized to untreated controls, mean ± SD, min. 3 donors
[10] = target: T5, Glucosyltransferase HL60 (Homo sapiens, UniProt Q16739); assay: In vitro enzyme inhibition; format: biochemical
T5 construct: endogenous in cells; host or cells: HL60
T5 sequence (Q16739 1-394): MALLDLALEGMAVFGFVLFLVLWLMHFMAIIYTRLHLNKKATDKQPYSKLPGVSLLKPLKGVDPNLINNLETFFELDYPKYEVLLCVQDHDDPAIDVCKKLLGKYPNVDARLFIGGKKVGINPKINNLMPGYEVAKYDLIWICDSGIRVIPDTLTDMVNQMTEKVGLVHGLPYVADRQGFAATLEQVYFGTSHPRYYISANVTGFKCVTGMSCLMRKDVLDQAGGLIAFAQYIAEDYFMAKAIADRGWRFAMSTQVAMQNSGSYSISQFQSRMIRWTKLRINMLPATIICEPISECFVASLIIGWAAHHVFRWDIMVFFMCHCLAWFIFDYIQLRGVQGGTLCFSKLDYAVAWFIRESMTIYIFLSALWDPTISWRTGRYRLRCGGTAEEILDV

[11] = test system: DENV; design: method as in PMID 23070155, PMID 23376501, PMID 22020302, PMID 22867971; conditions: post-exposure therapeutic administration; cited from earlier work
[12] = concentration required to inhibit the enzyme to 50% activity, read-out: IC50

Row | Structure (SMILES) | IC50 [1] [µM] | IC50 [2, 12] [µM] | IC50 [3, 12] [µM] | IC50 [4] [µM] | MNTD (maximum non-toxic dose tested) [5] [µM] | EC50 [6] [µM] | IC50 [7, 12] [µM] | IC50 [8, 12] [µM] | GM3 production (%) ([9]; 31.6 μM (MNTD)) | IC50 [7] [µM] | IC50 [8] [µM] | IC50 [2] [µM] | IC50 [10] [µM] | GM3 production (%) ([9]; 100 μM (MNTD)) | IC50 [3] [µM] | protection in lethal mouse models of DENV infection [11]
1 | OC[C@H]1NC[C@H](O)[C@@H](O)[C@H]1O [DGJ, 1-deoxygalactonojirimycin] | > 1000 | > 1000 | 340 | 362 | – | – | – | – | – | – | – | – | – | – | – | –
2 | OC[C@H]1NC[C@H](O)[C@@H](O)[C@@H]1O [DNJ, 1-Deoxynojirimycin] | 11.4 | 0.8 | – | 0.2 | 10000 | 308 | – | – | – | – | – | – | – | – | – | –
3 | CCCCCCCCCN1C[C@H](O)[C@@H](O)[C@H](O)[C@H]1CO [NN-DNJ] | 3.1 | 7.3 | 0.74 | 0.46 | 31.6 | 1.25 | 0.14 | 765 | 5.9 ± 1.2 | – | – | – | – | – | – | –
4 | O[C@H]1[C@H](O)[C@@H](O)CN2CC[C@H](O)[C@H]12 [Castanospermine, castanospermine] | 58.9 | – | – | 0.37 | 100 | 36.4 | – | – | – | 2 | > 1000 | 6.1 | > 1000 | 101.6 ± 6.7 | 0.28 | –
5 | COCCCCCCCCCN1C[C@H](O)[C@@H](O)[C@H](O)[C@H]1CO [MON-DNJ, N-(9-methoxynonyl)-DNJ] | – | – | – | – | – | – | – | – | – | – | – | – | – | – | – | protection in lethal mouse models
